# Source: US20020028940A1, “Indolyl-substituted phenylacetic acid derivatives” (priority 1995, published 2002)
# Where two headings read alike, the source gives them in different places.
# Columns and labels:
# [1] = test system: ApoB-100-associated lipoproteins; assay: Inhibition of the release of ApoB-100-associated lipoproteins from hepatic cells (HepG2), LDL immunoassay; type: cell-based, human; conditions: concentration at which adsorption of light (450 nm) is inhibited by 50% compared with solvent control
# Procedure: 1. Inhibition of the release of ApoB-100-associated lipoproteins
# The test for detection of the inhibition of the release of ApoB-100-associated lipoproteins from hepatic cells was carried out in vitro with cultured hepatic cells, preferably with cells of the human line HepG2. These cells are cultured under standard conditions in medium for culture of eukaryotic cells, preferably in RPM 1640 with 10% foetal calf serum. HepG2 cells synthesize and secrete into the culture supernatant ApoB-100-associated lipoprotein particles, which are in principle built up similarly to the VLDL and LDL particles which are to be found in plasma.
# These particles can be detected with an immunoassay for human LDL. This immunoassay is carried out with antibodies which have been induced against human LDL in rabbits under standard conditions. The anti-LDL antibodies (rab-anti-LDL-Ab) were purified by affinity chromatography on an immunosorbent with human LDL. These purified rab-anti-LDL-Ab are adsorbed onto the surface of plastic. This adsorption is expediently carried out on the plastic surface of microtiter plates with 96 wells, preferably on MaxiSorp plates. If ApoB-100-associated particles are present in the supernatant of Hep-G2 cells, these can then bond to the insolubilized rab-anti-LDL-Ab, and an immune complex bonded to the plastic surface is formed. Non-bonded proteins are removed by washing. The immune complex on the plastic surface is detected with monoclonal antibodies, which have been induced against human LDL and purified under standard conditions. These antibodies were conjugated with the enzyme peroxidase. Peroxidase converts the colourless substrate TMB into a coloured product in the presence of H2O2. After acidification of the reaction mixture with H2SO4, the specific adsorption of light is determined at 450 nm, this being a measure of the amount of ApoB-100-associated particles which had been secreted by the HepG2 cells into the culture supernatant.
# The IC50 value indicates the concentration of substance at which the adsorption of light is inhibited by 50% compared with the control (solvent control without the substance).
# [2] = test system: intestinal triglyceride absorption; assay: Inhibition of intestinal triglyceride absorption in vivo (rats); design: species or system male Wistar rats; conditions: fasting rats, postprandial serum triglyceride increase after tragacanth-olive oil loading
# Procedure: 3. Inhibition of intestinal triglyceride absorption in vivo (rats)
# The substances which are to be investigated in vivo for their inhibiting action on triglyceride absorption are administered orally to male Wistar rats having a body weight of between 170 and 230 g. For this purpose, the animals are divided into groups of 6 animals 18 hours before administration of the substance, and their food is then withdrawn. Drinking water is available to the animals ad libitum. The animals of the control groups are given an aqueous tragacanth suspension or a tragacanth suspension which comprises olive oil. The tragacanth-olive oil suspension is prepared with an Ultra-Turrax. The substances to be investigated are suspended in a corresponding tragacanth-olive oil suspension, likewise with an Ultra-Turrax, directly before administration of the substance.
# Before administration by a stomach tube, blood is taken from each rat by puncture of the retroorbital venous plexus for determination of the basal serum triglyceride content. The tragacanth suspension, the tragacanth-olive oil suspensions without a substance (control animals) or the substances, suspended in a corresponding tragacanth-olive oil suspension, are then administered to the fasting animals using a stomach tube. Further blood for determination of the postprandial serum triglyceride increase is as a rule taken 1, 2 and 3 hours after the administration by a stomach tube.
# The blood samples are centrifuged and, after isolation of the serum, the triglycerides are determined photometrically with an EPOS-Analyzer 5060 (Eppendorf Gerätebau, Netheler & Hinz GmbH, Hamburg). The triglycerides are determined completely enzymatically with a commercially available UV test.
# The postprandial increase in serum triglycerides is determined by subtraction of the triglyceride prevalue of each animal from its corresponding postprandial triglyceride concentrations (1, 2 and 3 hours after administration).
# The average is taken of the differences (in mmol/l) at each point in time (1, 2 and 3 hours) in the groups, and the means of the increase in serum triglycerides (ΔTG) of the animals treated with the substance are compared with the animals which received only the tragacanth-oil suspension.
# The course of the serum triglycerides in the control animals, which were given only tragacanth, is also calculated. The effect of the substance at each point in time (1, 2 or 3 hours) is determined as follows and stated in Δ% of the oil-loaded control. [formula]
# Effect of 10 mg of test substance/kg of body weight p.o. on the increase in triglycerides (Δ%) 2 hours after a triglyceride loading in the serum of fasting rats. The increase in serum triglycerides of fat-loaded control animals, based on the serum triglycerides level of tragacanth control animals, corresponds to 100%. n=6 animals per group.
# The statistical analysis is carried out with the Student t-test after first checking the variances for homogeneity.
Compound,IC50 [1] [nM],ED50 ([2]; p.o.),other results
Cc1cc2ccccc2n1Cc1ccc(C(C(=O)NC(CO)c2ccccc2)C2CCCCCC2)cc1 (mixture of isomers) [Example 4],40.5,<10 mg/kg,–
Cc1c(C)n(Cc2ccc(C(C(=O)NC(CO)c3ccccc3)C3CCCC3)cc2)c2ccccc12 (mixture of isomers) [Example 5],83.2,–,–
Cc1c(C)n(Cc2ccc(C(C(=O)NC(CO)c3ccccc3)C3CCCCC3)cc2)c2ccccc12 (mixture of isomers) [Example 8],50.5,–,–
O=C(NC(CO)c1ccccc1)C(c1ccc(Cn2c(-c3ccccc3)cc3ccccc32)cc1)C1CCCCCC1 (mixture of isomers) [Example 16],35.9,>2 mg/kg,–
CCOC(=O)c1cc2ccccc2n1Cc1ccc(C(C(=O)NC(CO)c2ccccc2)C2CCCC2)cc1 (mixture of isomers) [Example 17],38.1,–,–
CCOC(=O)c1cc2ccccc2n1Cc1ccc(C(C(=O)NC(CO)c2ccccc2)C2CCCCCC2)cc1 (mixture of isomers) [Example 20],8.1,>>10 mg/kg,–
CCOC(=O)c1cc2cc(OC)ccc2n1Cc1ccc(C(C(=O)NC(CO)c2ccccc2)C2CCCC2)cc1 (mixture of isomers) [Example 23],36.1,2 mg/kg,–
CCOC(=O)c1cc2cc(Cl)ccc2n1Cc1ccc(C(C(=O)NC(CO)c2ccccc2)C2CCCC2)cc1 (mixture of isomers) [Example 26],26.8,–,–
Cc1cn(Cc2ccc(C(C(=O)NC(CO)c3ccccc3)C3CCCCCC3)cc2)c2ccccc12 (mixture of isomers) [Example 29],40.5,3 mg/kg,–
Cc1cccc2ccn(Cc3ccc(C(C(=O)NC(CO)c4ccccc4)C4CCCC4)cc3)c12 (mixture of isomers) [Example 31],428,–,–
O=C(NC(CO)c1ccccc1)C(c1ccc(Cn2ccc3cc(Cl)ccc32)cc1)C1CCCCCC1 (mixture of isomers) [Example 32],48.5,–,–
O=C(NC(CO)c1ccccc1)C(c1ccc(Cn2ccc3ccc(Cl)cc32)cc1)C1CCCC1 (mixture of isomers) [Example 33],41.1,–,–
COc1cccc2c1ccn2Cc1ccc(C(C(=O)NC(CO)c2ccccc2)C2CCCC2)cc1 (mixture of isomers) [Example 36],72.5,–,–
"Cc1c(C)n(Cc2ccc(C(C(=O)NC(CO)c3ccccc3)C3CCCC3)cc2)c2ccccc12 (single isomer, unassigned) [Example 6]",37.4,–,–
"Cc1c(C)n(Cc2ccc(C(C(=O)NC(CO)c3ccccc3)C3CCCC3)cc2)c2ccccc12 (single isomer, unassigned) [Example 7]",229,–,–
"O=C(NC(CO)c1ccccc1)C(c1ccc(Cn2c(-c3ccccc3)cc3ccccc32)cc1)C1CCCC1 (single isomer, unassigned) [Example 14]",474,–,–
"O=C(NC(CO)c1ccccc1)C(c1ccc(Cn2c(-c3ccccc3)cc3ccccc32)cc1)C1CCCC1 (single isomer, unassigned) [Example 15]",47.3,–,–
"CCOC(=O)c1cc2ccccc2n1Cc1ccc(C(C(=O)NC(CO)c2ccccc2)C2CCCCCC2)cc1 (single isomer, unassigned) [Example 21]",4.5,>>6 mg/kg,–
"CCOC(=O)c1cc2ccccc2n1Cc1ccc(C(C(=O)NC(CO)c2ccccc2)C2CCCCCC2)cc1 (single isomer, unassigned) [Example 22]",23.5,–,–
"CCOC(=O)c1cc2cc(Cl)ccc2n1Cc1ccc(C(C(=O)NC(CO)c2ccccc2)C2CCCC2)cc1 (single isomer, unassigned) [Example 27]",6.5,>2 mg/kg,–
"CCOC(=O)c1cc2cc(Cl)ccc2n1Cc1ccc(C(C(=O)NC(CO)c2ccccc2)C2CCCC2)cc1 (single isomer, unassigned) [Example 28]",62.6,–,–
"O=C(NC(CO)c1ccccc1)C(c1ccc(Cn2ccc3ccc(Cl)cc32)cc1)C1CCCC1 (single isomer, unassigned) [Example 34]",12.3,2 mg/kg,–
"O=C(NC(CO)c1ccccc1)C(c1ccc(Cn2ccc3ccc(Cl)cc32)cc1)C1CCCC1 (single isomer, unassigned) [Example 35]",308,–,–
"COc1cccc2c1ccn2Cc1ccc(C(C(=O)NC(CO)c2ccccc2)C2CCCC2)cc1 (single isomer, unassigned) [Example 37]",31.1,>2 mg/kg,–
"COc1cccc2c1ccn2Cc1ccc(C(C(=O)NC(CO)c2ccccc2)C2CCCC2)cc1 (single isomer, unassigned) [Example 38]",270,–,–
"Cc1c(C)n(Cc2ccc(C(C(=O)N[C@@H](CO)c3ccccc3)C3CCCCCC3)cc2)c2ccccc12 (stereo partly drawn) [Example 2, 2-Cycloheptyl-N-(2-hydroxy-1-(R)-phenylethyl)-2-[4-(2,3-dimethylindol-1-yl-methyl)phenyl]acetamide]",–,–,"melting point: 163 °C; IC50 ([1]; Homo sapiens): 29.5 nM; ED50 ([2]; Rattus norvegicus, po, read-out: TG absorption ED50 or % inhibition mg/kg/p.o.): < 3 mg/kg"
